In patent publication US8022056B2, “Compositions and methods for the treatment of cancer” (Tautatis, Inc, priority 2006, dated 2011):

How the values were obtained:
GSK3 = assay: Kinase inhibition under standard conditions, GSK3; assay type: biochemical
CDK1 = CDK1 (Homo sapiens, UniProt P06493); assay: Kinase inhibition under standard conditions, CDK1; assay type: biochemical
PKC = assay: Kinase inhibition under standard conditions, PKC; assay type: biochemical
[1] = test system: HT29 colon cancer cell line; assay: Long-term growth inhibition, crystal violet staining; assay type: cell-based, human; conditions: 10 nM
Method: (§1) For proliferation assays tumor cell suspensions (100 μl/well) were seeded into 96-well flat bottomed microtitration plates at a density of ca. 15 cells/microscopic field (magnification 320×). After 2-3 days the culture medium was removed by suction and replaced by fresh medium (200 μl/well) containing varying concentrations of the compound of the formula 1 or vehicle (0.5% DMSO). Compound 1 was added as […] concentrated feed solutions. On every plate 16 wells served as controls and 16 wells were used per concentration of 1. After various times of incubation the cells were fixed with glutardialdehyde and stored in a refrigerator. At the end of the assay all plates were processed simultaneously (staining with 0.02% aqueous crystal violet solution (100 μl/well). Excess dye was removed by rinsing the trays with water for 20 min. The stain bound by the cells was redissolved in 70% ethanol (180 μl/well) while shaking the microplates for about 3 hours. Absorbance (proportional to cell mass) was measured at 578 nm using a BIOTEK 309 Autoreader. The results (mean values±standard deviation) were plotted as growth curves.
The HT29 human colon cancer cell line (obtained from ATCC, Rockville, USA) was cultured as above. Treatment with the compound of the formula 1 and analysis of growth inhibition was performed analogous to Example 3.

[2] = test system: U373 glioblastoma cell line; assay: as above; assay type: cell-based, human; conditions: U373, over a week
Method: as §1
The EGF-receptor independent U373 Human Glioblastoma cell line (obtained from ATCC, Rockville, USA) was cultured as above. Treatment with the compound of the formula 1 and analysis of growth inhibition was performed analogous to Example 3.

PKA = assay: Kinase inhibition under standard conditions, PKA; assay type: biochemical
[3] = test system: MDA-MB-231 breast cancer cell line; assay: Long-term growth inhibition, crystal violet staining; assay type: cell-based, human
Method: The human estrogen receptor and EGF receptor negative MDA-MB-231 (HTB 26) breast cancer cell line (obtained from ATCC, Rockville, USA) were cultured in McCoy's 5A medium containing L-glutamine, 2.2 g/l NaHCO3 and 5% fetal calf serum. Cells were maintained in a water saturated atmosphere (95% air/5% carbon dioxide) at 37° C. in 75-cm^2 culture flasks, and were serially passaged following trypsinization using 0.05% trypsin/0.02% EDTA.
as §1

ERK2 = ERK2 (Homo sapiens, UniProt P28482); assay: Kinase inhibition under standard conditions, ERK2; assay type: biochemical
[4] = Propper et al.; cited from earlier work
[5] = test system: breast cancer tumor cell lines; conditions: large panel, Konecny et al.; cited from earlier work
[6] = test system: target kinases versus GSK3, PKC and PKA; assay: Kinase potency and selectivity profile under identical kinase assay conditions; assay type: biochemical
From the text: Relative to the compounds disclosed in WO00/01699 and WO04/048384, compounds of the structural formula 1-4 have a higher degree of selectivity in favor of several antiproliferative kinases, as exemplified for the representative compound 1 and directly related compounds 7 of WO04/048384 and 8-9 of WO00/01699, containing the general scaffold of 10, respectively.

Chain of ERK2 (P28482 whole entry, species assumed): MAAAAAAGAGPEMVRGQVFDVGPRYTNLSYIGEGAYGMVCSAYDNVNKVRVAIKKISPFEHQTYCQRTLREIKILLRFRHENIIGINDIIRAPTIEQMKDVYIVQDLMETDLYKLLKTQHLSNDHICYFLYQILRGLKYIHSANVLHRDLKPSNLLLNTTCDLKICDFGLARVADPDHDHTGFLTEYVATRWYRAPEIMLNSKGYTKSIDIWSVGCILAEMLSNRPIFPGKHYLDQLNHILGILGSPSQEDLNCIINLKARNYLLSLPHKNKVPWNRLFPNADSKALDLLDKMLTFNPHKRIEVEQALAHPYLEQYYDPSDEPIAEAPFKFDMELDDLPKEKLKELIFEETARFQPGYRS
Chain of CDK1 (P06493 whole entry, species assumed): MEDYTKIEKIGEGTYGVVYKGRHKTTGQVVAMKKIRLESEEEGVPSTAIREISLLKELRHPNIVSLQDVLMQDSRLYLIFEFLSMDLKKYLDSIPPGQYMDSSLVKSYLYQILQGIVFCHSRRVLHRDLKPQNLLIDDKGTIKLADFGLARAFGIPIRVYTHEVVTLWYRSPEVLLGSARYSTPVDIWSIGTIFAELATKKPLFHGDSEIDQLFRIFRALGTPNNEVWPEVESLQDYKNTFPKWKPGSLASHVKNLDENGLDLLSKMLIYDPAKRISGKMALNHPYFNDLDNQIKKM
Chain of CDK1 (P14635 whole entry partner, species assumed): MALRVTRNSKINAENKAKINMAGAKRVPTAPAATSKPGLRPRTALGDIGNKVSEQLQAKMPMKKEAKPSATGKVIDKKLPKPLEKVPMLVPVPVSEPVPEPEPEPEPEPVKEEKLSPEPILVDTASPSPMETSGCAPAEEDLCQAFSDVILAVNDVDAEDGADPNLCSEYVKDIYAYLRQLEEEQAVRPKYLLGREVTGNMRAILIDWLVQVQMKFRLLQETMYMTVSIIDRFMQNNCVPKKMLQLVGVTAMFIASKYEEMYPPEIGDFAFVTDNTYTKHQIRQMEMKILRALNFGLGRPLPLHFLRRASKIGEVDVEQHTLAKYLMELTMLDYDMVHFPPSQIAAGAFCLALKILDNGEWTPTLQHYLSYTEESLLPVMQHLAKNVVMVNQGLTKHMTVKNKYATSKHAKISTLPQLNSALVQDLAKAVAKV

Compound | IC50 (GSK3) [nM] | IC50 (CDK1) [nM] | IC50 (PKC) [nM] | IC50 (PKA) [nM] | IC50 (ERK2) [nM] | potency and selectivity profile compared with 1 [6] | other results
COC(=O)[C@@]1(N)CC2OC1(C)n1c3ccccc3c3c4c(c5c6ccccc6n2c5c31)C(=O)NC4 (some centres unmarked) [Compound 6] | > 10000 | 650 | > 10000 | > 10000 | 870 |  | proliferation of HT29 cells [1]: completely ineffective; concentration required for a similar effect as 10 nM of 1 [2]: ten-fold higher concentration; growth of MDA-MB-231 cells ([3]; 10 nM, 1 week of exposure): virtually ineffective; concentration required for a similar effect as 10 nM of 1 ([3]; MDA-MB-231, 1 week): ten-fold higher concentration
CO[C@@H]1[C@H](N(C)C(=O)c2ccccc2)C[C@H]2O[C@]1(C)n1c3ccccc3c3c4c(c5c6ccccc6n2c5c31)C(=O)NC4 [PKC-412] |  |  |  |  |  |  | human serum binding [4]: extreme human serum binding
CS(=O)(=O)CCNCc1ccc(-c2ccc3ncnc(Nc4ccc(OCc5cccc(F)c5)c(Cl)c4)c3c2)o1 [Tykerb] |  |  |  |  |  |  | share of breast cancer tumor cell lines with growth inhibitory activity [5]: about 20%
CNC(=O)[C@@]1(N)C[C@H]2O[C@]1(C)n1c3ccccc3c3c4c(c5c6ccccc6n2c5c31)C(=O)NC4=O [Compound 3] |  |  |  |  |  | virtually identical potency and selectivity profile as 1 | 
CNC(=O)[C@@]1(O)CC2CC1n1c3ccccc3c3c4c(c5c6ccccc6n2c5c31)C(=O)NC4=O (some centres unmarked) [Compound 8] | 37 | 63 | 120 | 78 | 120 |  | 
C[C@]12O[C@H](C[C@]1(N)C(N)=O)n1c3ccccc3c3c4c(c5c6ccccc6n2c5c31)C(=O)NC4=O [Compound 4] |  |  |  |  |  | virtually identical potency and selectivity profile as 1 | 
C[C@]12O[C@H](C[C@]1(N)C(N)=O)n1c3ccccc3c3c4c(c5c6ccccc6n2c5c31)CNC4=O [Compound 2] |  |  |  |  |  | virtually identical potency and selectivity profile as 1 | 
CNC(=O)[C@@]1(N)CC2CC1n1c3ccccc3c3c4c(c5c6ccccc6n2c5c31)C(=O)NC4 (some centres unmarked) [Compound 7] | 350 | 180 | 260 | 440 | 600 |  | 
CNC(=O)[C@@]1(O)CC2CC1n1c3ccccc3c3c4c(c5c6ccccc6n2c5c31)C(=O)NC4 (some centres unmarked) [Compound 9] | 400 | 110 | 210 | 550 | 480 |  | 
